The values below are quoted from earlier work in patent US20040115266A1, “Oral itraconazole formulations and methods of making the same” (priority 2004, published 2004).

Structures are written as SMILES.

Take `CCC(C)n1ncn(-c2ccc(N3CCN(c4ccc(OCC5COC(Cn6cncn6)(c6ccc(Cl)cc6Cl)O5)cc4)CC3)cc2)c1=O` (single isomer, unassigned; (+)) [Itraconazole, (+)-cis-4-[4-[4-[4-[[2-(2,4-dichlorophenyl)-2-(1H-1,2,4-triazol-1-ylmethyl)-1,3-dioxolan-4-yl]methoxy]phenyl]-1-piperazinyl]phenyl]-2,4-dihydro-2-(1-methylpropyl)-3H-1,2,4-triazol-3-one]: the “0.1 N Hydrochloric acid solubility” value (0.1 N Hydrochloric acid) is less than 6 micrograms per milliliter. For the same molecule, the water solubility entry (water) was “less than 1 microgram per milliliter”.
